Data set [1] is described as follows: Maximal tolerated dose in mouse by single injection. Particulars: in vivo, observed for a week.
Data set [2] has as its system Jurkat cells. Put plainly: M phase checkpoint abrogation / non specific toxicity in colchicine treated Jurkat cells, flow cytometry. It is filed as cell-based. Particulars: with 5 μg/ml colchicine, 24 hours. As for the experimental part:
Cell-cycle analysis The cell cycle status of the cells treated with bleomycin or adriamcin were analyzed by flow cytometry as described by Kawabe (1997) Nature 385:454–458. In brief, two million cells were re-suspended and incubated in 200 μul Krishan's solution (0.1% Sodium citrate, 50 μg/ml PI, 20 μg/ml RNase A and 0.5% NP-40) for 1 hr at 4° C. and analyzed by a flow cytometry, FACScan™ (Beckton Dickinson, Mountain View, Calif.) with the program CELLQuest™ (Beckton Dickinson).
Flow cytometry analysis of M phase checkpoint abrogation by the compounds was performed using human T cell leukemia Jurkat cell line treated with colchicine (5 μg/ml or 0.5 μg/ml) and various doses of peptide/peptidomimetics for 24 hr (FIG. 12). The DNA of the cells was stained and analyzed by flow cytometry as described above.
The “Appearance of side effect when used alone” indicates the peptide/peptidomimetic dose that produced Jurkat cell cycle disturbance, i.e., the appearance of significant amounts of SubG1 cells (dead cells) or cells in which the DNA content of each varies more than usual. […]
A comparison between G2 checkpoint abrogating activity and non specific toxicity (M checkpoint abrogation) by CB501 was performed. […] The DNA amount in each of the treated cells was analyzed by flow cytometry, as previously described.

Data set [3] concerns Jurkat cells. Briefly: G2 checkpoint abrogation in bleomycin treated Jurkat cells, flow cytometry. It is filed as cell-based, human. The settings on record: for G2 abrogating dose: Jurkat cells, with 40 μg/ml bleomycine, 24 hours, dose with detectable G2 checkpoint abrogation; for G2 checkpoint abrogating activity (in words): bleomycin (40 μg/ml) treated Jurkat cells, % G2/M cells.
Procedure: Flow cytometry analysis of G2 checkpoint abrogation was performed using human leukemia derived Jurkat cell line. In brief, cultured cells were treated with various doses of peptide/peptidomimetic and 40 μg/ml bleomycine for 24 hr. The DNA of the cells was stained with propidium iodide and analyzed by flow cytometry.
The “Appearance of side effect when used alone” indicates the peptide/peptidomimetic dose that produced Jurkat cell cycle disturbance, i.e., the appearance of significant amounts of SubG1 cells (dead cells) or cells in which the DNA content of each varies more than usual. […] The “G2 abrogating dose” indicates the peptide/peptidomimetic dose with 40 μg/ml bleomycine that produced detectable G2 checkpoint abrogation activity following treatment for 24 hours. The “Appearance of side effect when used with colchicine” indicates the peptide/peptidomimetic dose with 5 μg/ml colchicine that produced Jurkat cell cycle disturbance following treatment for 24 hours.

Data set [4] has as its target T1, recombinant human full length Chk2 (Homo sapiens, UniProt O96017).
T1 construct: E. Coli derived recombinant human full length Chk2 fused with GST; host or cells: E. coli
Put plainly: In vitro kinase inhibition (CycLex), phosphorylation of serine 216 on GST-Cdc25C. Type of data set: biochemical. The protocol:
(§1) In vitro kinase inhibition analysis was performed by CycLex, Co. Ltd., Nagano, Japan. Briefly, baculovirus derived recombinant human full length Chk1 with histidine tag or E. Coli derived recombinant human full length Chk2 fused with GST were used as kinases. E. Coli derived recombinant GST-Cdc25C (amino acis 167–267) was used as a substrate. Reaction conditions were 20 mM Hepes-KOH (pH7.5), 1 mM DTT, […] BSA, 10 mM MgCl2 and […] ATP at 30 degree for 60 min. The phosphorylation of serine 216 on GST-Cdc25C was detected by anti-Cdc25C-phosphorylated S216 antibody with enzyme linked immune assay.

For data set [5], the target named is T2, recombinant human full length Chk1 (Homo sapiens, UniProt O14757).
T2 construct: baculovirus derived recombinant human full length Chk1 with histidine tag; histidine tag; host or cells: baculovirus system (insect cells)
T2 sequence (O14757 1-476): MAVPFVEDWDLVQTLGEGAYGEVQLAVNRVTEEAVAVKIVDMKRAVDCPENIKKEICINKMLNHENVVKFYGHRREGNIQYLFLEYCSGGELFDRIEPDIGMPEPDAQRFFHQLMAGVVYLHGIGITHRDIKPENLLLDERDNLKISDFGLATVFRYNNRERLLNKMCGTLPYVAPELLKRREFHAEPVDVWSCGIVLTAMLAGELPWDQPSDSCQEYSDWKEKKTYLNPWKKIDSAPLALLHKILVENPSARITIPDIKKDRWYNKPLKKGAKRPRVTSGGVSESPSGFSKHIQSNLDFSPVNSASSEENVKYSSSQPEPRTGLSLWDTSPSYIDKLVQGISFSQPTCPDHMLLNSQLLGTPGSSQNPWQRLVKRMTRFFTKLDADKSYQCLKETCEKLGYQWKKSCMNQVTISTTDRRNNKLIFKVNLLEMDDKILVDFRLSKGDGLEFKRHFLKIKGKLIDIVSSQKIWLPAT
Described as above. It is filed as biochemical. The protocol: as §1

Data set [6] is described as follows: Human serum treatment analysis, residual G2 checkpoint abrogating activity. Type of data set: in vitro ADME. The settings on record: d-type amino acid peptides compared with l-type peptide such as CBP413. As for the experimental part:
Serum analysis was performed to determine the stability of peptides in mouse and human serum. Briefly, peptides (10 mM or 2.5 mM) were incubated with freshly prepared human serum at 37 degrees for 1 hr. CBP50 (10 mM) was incubated with freshly prepared mouse serum for 1 hr at 37 degree. Jurkat cells were treated with the serum with or without peptides and bleomycin (40 μg/ml) and incubated for 24 hr. The population of G2 phase cells was determined by flow cytometry as previously described. The residual G2 checkpoint abrogating activity of serum treated peptides were determined by comparing the % G2 cells of the treated serum and the standard curve produced with medium treated peptides, bleomycin and Jurkat cells (Table 5A).

Where two headings read alike, the source gives them in different places. Square brackets hold non-standard residues; d marks the D form. Peptide text beside a SMILES is read from it. dPhe(4-NO2) = N[C@H](Cc1ccc([N+](=O)[O-])cc1)C(=O)O; dPhe(F5) = N[C@H](Cc1c(F)c(F)c(F)c(F)c1F)C(=O)O; dBpa = N[C@H](Cc1ccc(C(=O)c2ccccc2)cc1)C(=O)O; dCha = N[C@H](CC1CCCCC1)C(=O)O

T1 sequence (O96017 whole entry, the tested form may be a part): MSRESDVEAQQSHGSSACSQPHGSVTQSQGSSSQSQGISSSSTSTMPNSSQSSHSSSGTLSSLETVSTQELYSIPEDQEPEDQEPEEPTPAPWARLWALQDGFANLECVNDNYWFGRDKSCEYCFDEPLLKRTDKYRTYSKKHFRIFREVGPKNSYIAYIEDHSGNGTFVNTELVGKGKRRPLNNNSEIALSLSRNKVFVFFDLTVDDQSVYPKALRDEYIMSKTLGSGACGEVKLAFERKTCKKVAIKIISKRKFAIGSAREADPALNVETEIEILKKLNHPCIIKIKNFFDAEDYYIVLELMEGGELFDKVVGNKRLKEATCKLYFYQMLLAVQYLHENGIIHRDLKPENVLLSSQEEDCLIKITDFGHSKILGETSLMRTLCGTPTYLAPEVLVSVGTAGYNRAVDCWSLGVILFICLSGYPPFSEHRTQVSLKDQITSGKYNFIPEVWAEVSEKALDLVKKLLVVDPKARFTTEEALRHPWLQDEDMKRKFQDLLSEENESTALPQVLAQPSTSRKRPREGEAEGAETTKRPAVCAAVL

For `N=C(N)NCCC[C@H](NC(=O)CNC(=O)[C@@H](N)Cc1ccc(O)cc1)C(=O)N[C@@H](CCCCN)C(=O)N[C@@H](CCCCN)C(=O)N[C@@H](CCCNC(=N)N)C(=O)N[C@@H](CCCNC(=N)N)C(=O)N[C@@H](CCC(N)=O)C(=O)N[C@@H](CCCNC(=N)N)C(=O)N[C@@H](CCCNC(=N)N)C(=O)N[C@@H](CCCNC(=N)N)C(=O)N[C@@H](CC1CCCCC1)C(=O)N[C@@H](Cc1c(F)c(F)c(F)c(F)c1F)C(=O)N[C@@H](CCCNC(=N)N)C(=O)N[C@@H](CO)C(=O)N1CCC[C@H]1C(=O)N[C@@H](CO)C(=O)N[C@@H](Cc1ccc(O)cc1)C(=O)N[C@@H](Cc1ccc(O)cc1)C(=O)O` [CBP413, (l-Tyr)(l-Gly)(l-Arg)(l-Lys)(l-Lys)(l-Arg)(l-Arg)(l-Gln)(l-Arg)(l-Arg)(l-Arg)(l-Cha)(l-Phe-2,3,4,5,6-F)(l-Arg)(l-Ser)(l-Pro)(l-Ser)(l-Tyr)(l-Tyr)], the maximum tolerated dose (MTD) in data set [1] (ip, single intra-peritoneal injection, read-out: MTD (ip)) came out at 147 mg/kg; in data set [1] (single intravenous injection, read-out: MTD (iv)) it was 14 mg/kg. `N=C(N)NCCC[C@H](NC(=O)CNC(=O)[C@@H](N)Cc1ccc(O)cc1)C(=O)N[C@@H](CCCCN)C(=O)N[C@@H](CCCCN)C(=O)N[C@@H](CCCNC(=N)N)C(=O)N[C@@H](CCCNC(=N)N)C(=O)N[C@@H](CCC(N)=O)C(=O)N[C@@H](CCCNC(=N)N)C(=O)N[C@@H](CCCNC(=N)N)C(=O)N[C@@H](CCCNC(=N)N)C(=O)N[C@@H](CC1CCCCC1)C(=O)N[C@@H](Cc1c(F)c(F)c(F)c(F)c1F)C(=O)N[C@@H](CCCNC(=N)N)C(=O)N[C@@H](CO)C(=O)N1CCC[C@H]1C(=O)N[C@@H](CO)C(=O)N[C@@H](Cc1ccc(O)cc1)C(=O)O` [CBP420, (l-Tyr)(l-Gly)(l-Arg)(l-Lys)(l-Lys)(l-Arg)(l-Arg)(l-Gln)(l-Arg)(l-Arg)(l-Arg)(l-Cha)(l-Phe-2,3,4,5,6-F)(l-Arg)(l-Ser)(l-Pro)(l-Ser)(l-Tyr)]: the “Appearance of side effect when used with Colchicine” value in the data set with Jurkat cells [2] is recorded as “≧50 μM”. As to `N=C(N)NCCC[C@@H](NC(=O)[C@@H](CCCCN)NC(=O)[C@@H](CCCCN)NC(=O)[C@@H](CCCNC(=N)N)NC(=O)[C@@H](CCCNC(=N)N)NC(=O)[C@@H](CCC(N)=O)NC(=O)[C@@H](CCCNC(=N)N)NC(=O)[C@@H](CCCNC(=N)N)NC(=O)[C@@H](CCCNC(=N)N)NC(=O)[C@@H](CC1CCCCC1)NC(=O)[C@@H](Cc1c(F)c(F)c(F)c(F)c1F)NC(=O)[C@@H](CCCNC(=N)N)NC(=O)[C@@H](CO)NC(=O)CNC(=O)[C@@H](CO)NC(=O)[C@@H](Cc1ccc(O)cc1)NC(=O)[C@H](N)Cc1ccc(O)cc1)C(=O)NCC(=O)N[C@H](Cc1ccc(O)cc1)C(=O)O` [CBP450, (d-Tyr)(d-Tyr)(d-Ser)(l-Gly)(d-Ser)(d-Arg)(d-Phe-2,3,4,5,6-F)(d-Cha)(d-Arg)(d-Arg)(d-Arg)(d-Gln)(d-Arg)(d-Arg)(d-Lys)(d-Lys)(d-Arg)(l-Gly)(d-Tyr)] (H-[dY][dY][dS]G[dS][dR][dPhe(F5)][dCha][dR][dR][dR][dQ][dR][dR][dK][dK][dR]G[dY]-OH; N-terminus and C-terminus assumed), the G2 abrogating dose entry with Jurkat cells [3] is “≧0.78 μM”. Same read-out and setting: as for `N=C(N)NCCC[C@@H](NC(=O)[C@@H](CCCNC(=N)N)NC(=O)[C@@H](CCC(N)=O)NC(=O)[C@@H](CCCNC(=N)N)NC(=O)[C@@H](CCCNC(=N)N)NC(=O)[C@@H](CCCNC(=N)N)NC(=O)[C@@H](CC1CCCCC1)NC(=O)[C@@H](Cc1c(F)c(F)c(F)c(F)c1F)NC(=O)[C@@H](CO)NC(=O)[C@@H](Cc1c[nH]c2ccccc12)NC(=O)[C@@H](CO)NC(=O)[C@@H](Cc1ccc(C(=O)c2ccccc2)cc1)NC(=O)[C@H](N)Cc1ccc(O)cc1)C(=O)O` [CBP500, (d-Tyr)(d-Bpa)(d-Ser)(d-Trp)(d-Ser)(d-Phe-2,3,4,5,6-F)(d-Cha)(d-Arg)(d-Arg)(d-Arg)(d-Gln)(d-Arg)(d-Arg)] (H-[dY][dBpa][dS][dW][dS][dPhe(F5)][dCha][dR][dR][dR][dQ][dR][dR]-OH; N-terminus and C-terminus assumed), the entry is “≧0.39 μM”.

As for `N=C(N)NCCC[C@@H](NC(=O)[C@@H](CCCNC(=N)N)NC(=O)[C@@H](CCC(N)=O)NC(=O)[C@@H](CCCNC(=N)N)NC(=O)[C@@H](CCCNC(=N)N)NC(=O)[C@@H](CCCNC(=N)N)NC(=O)[C@@H](CC1CCCCC1)NC(=O)[C@@H](Cc1c(F)c(F)c(F)c(F)c1F)NC(=O)[C@@H](CC(=O)O)NC(=O)[C@@H](CO)NC(=O)[C@@H](Cc1c[nH]c2ccccc12)NC(=O)[C@@H](CO)NC(=O)[C@H](N)Cc1ccc(C(=O)c2ccccc2)cc1)C(=O)O` [CBP506, (d-Bpa)(d-Ser)(d-Trp)(d-Ser)(d-Asp)(d-Phe-2,3,4,5,6-F)(d-Cha)(d-Arg)(d-Arg)(d-Arg)(d-Gln)(d-Arg)(d-Arg)] (H-[dBpa][dS][dW][dS][dD][dPhe(F5)][dCha][dR][dR][dR][dQ][dR][dR]-OH; N-terminus and C-terminus assumed), the half-inhibitory concentration (IC50) is 67 µM in data set [4] and 37.6 µM in data set [5]. As for `N=C(N)NCCC[C@@H](NC(=O)[C@@H](CCCNC(=N)N)NC(=O)[C@@H](CCC(N)=O)NC(=O)[C@@H](CCCNC(=N)N)NC(=O)[C@@H](CCCNC(=N)N)NC(=O)[C@@H](CCCNC(=N)N)NC(=O)[C@@H](CC1CCCCC1)NC(=O)[C@@H](Cc1ccc([N+](=O)[O-])cc1)NC(=O)[C@@H](CO)NC(=O)[C@@H](Cc1c[nH]c2ccccc12)NC(=O)[C@@H](CO)NC(=O)[C@H](N)Cc1ccc(C(=O)c2ccccc2)cc1)C(=O)O` [CBP603, (d-Bpa)(d-Ser)(d-Trp)(d-Ser)(d-Phe4No2)(d-Cha)(d-Arg)(d-Arg)(d-Arg)(d-Gln)(d-Arg)(d-Arg)] (H-[dBpa][dS][dW][dS][dPhe(4-NO2)][dCha][dR][dR][dR][dQ][dR][dR]-OH; N-terminus and C-terminus assumed), in data set [6], the “Stability in serum (in words)” value is “more stable in serum”. Regarding “(d-Arg)(d-Arg)(d-Arg)(d-Arg)(d-Bpa)(d-Arg)(d-Trp)(d-Arg)(d-Phe-2,3,4,5,6-F)(d-Cha) [CBP702]”, the “G2 checkpoint abrogating activity (in words)” value in the data set with Jurkat cells [3] is on record as “retain G2 checkpoint abrogating activity comparable to other peptides having significant G2 checkpoint abrogating activity”. Same read-out and setting: to “(d-Arg)(d-Arg)(d-Arg)(d-Bpa)(d-Arg)(d-Arg)(d-Arg)(d-Phe-2,3,4,5,6-F)(d-Cha) [CBP703]” belongs “retain G2 checkpoint abrogating activity comparable to other peptides having significant G2 checkpoint abrogating activity”; to “(d-Arg)(d-Arg)(d-Arg)(d-Bpa)(d-Arg)(d-Trp)(d-Arg)(d-Phe-2,3,4,5,6-F)(d-Cha) [CBP701]”, “retain G2 checkpoint abrogating activity comparable to other peptides having significant G2 checkpoint abrogating activity”; to “(d-Arg)(d-Arg)(d-Bpa)(d-Arg)(d-Arg)(d-Arg)(d-Phe-2,3,4,5,6-F)(d-Cha) [CBP700]”, “retain G2 checkpoint abrogating activity comparable to other peptides having significant G2 checkpoint abrogating activity”.

(Values after US6995135B2, “Peptides and peptidomimetics having anti-proliferative activity and/or that augment nucleic acid damaging agents or treatments” (priority 2002, dated 2006).)
